The source of these data is patent US20150231236A1, “METHODS FOR TREATING PATIENTS WITH HYPERCHOLESTEROLEMIA THAT IS NOT ADEQUATELY CONTROLLED BY MODERATE-DOSE STATIN THERAPY” (Regeneron Pharmaceuticals, Inc., priority 2014, published 2015).

The test has as its system patients with hypercholesterolemia at high CV risk not adequately controlled with rosuvastatin (10 mg or 20 mg). Briefly: Example 3: randomized, double-blind trial, lipid efficacy of mAb316P add-on to rosuvastatin vs EZE add-on or rosuvastatin dose doubling. It counts as in vivo, human. To be noted: for Proportion of Patients Reaching LDL-C goal (%) / LDL-C W24 % change from baseline, LS mean (SE): week 24; for Proportion of Patients Reaching LDL-C goal (%): LDL-C <70 mg/dL very high risk or <100 mg/dL high risk; for LDL-C W24 % change from baseline, LS mean (SE): ITT population, treatment arm as labelled. The protocol:
The present study was a randomized, double-blind, active-comparator, parallel-group study in patients at high CV risk with non-FH or heFH who are not adequately controlled with rosuvastatin (10 mg or 20 mg) with or without other lipid-modifying therapy (LMT) (excluding EZE). The study design is illustrated in FIG. 2. Patients who entered the study were taking either rosuvastatin 10 mg or rosuvastatin 20 mg. The former patients were randomized to 1 of 3 treatment arms (arms 1 to 3); the latter patients were randomized to 1 of 3 treatment arms (arms 4 to 6). The treatment arms are as follows:
(B) a double-blind treatment period of 24 weeks. […] The patient/caregiver administered subsequent injections outside of the clinic according to the dosing schedule. […] The last dose of daily oral study drugs was administered at week 24.
The first injection of study drug was administered at the clinical site, as soon as possible after the patient was randomized into the study. The patient was monitored at the clinical site for at least 30 minutes following the first injection. The patient/caregiver administered subsequent injections outside of the clinic, according to the dosing schedule.
The primary efficacy endpoint was the percent change in calculated LDL-C from baseline to week 24, which is defined as: 100× (calculated LDL-C value at week 24−calculated LDL-C value at baseline)/calculated LDL-C value at baseline. The baseline calculated LDL-C value was the last LDL-C level obtained before the first double-blind study drug injection. The calculated LDL-C at week 24 was the LDL-C level obtained within the week 24 analysis window and during the main efficacy period. The main efficacy period is defined as the time from the first double-blind study drug injection up to 21 days after the last double-blind study drug injection or up to the upper limit of the week 24 analysis window, whichever comes first.
Total-C, HDL-C, TG, ApoB, ApoA-1, and Lp(a) were directly measured by a central laboratory. LDL-C was calculated using the Friedewald formula. […] Non-HDL-C was calculated by subtracting HDL-C from the total-C. Ratio ApoB/ApoA-1 was calculated.
For clarification, the ITT analysis is defined for patients in the ITT population and includes all endpoint assessments in an analysis window, regardless of study treatment dosing status (i.e. includes post-treatment assessments). The on-treatment analysis is defined for patients in the mITT population and includes all endpoint assessments from the first double-blind study drug (capsule or injection, whichever comes first) up to 21 days after the last double-blind study drug injection or 3 days after the last capsule intake, whichever comes first (i.e. includes assessments in the efficacy treatment period).

[1] abbreviates: Week 4, baseline rosuvastatin 10 mg.
[2] abbreviates: Week 8, baseline rosuvastatin 10 mg.
Setting [3] is: Week 12, baseline rosuvastatin 10 mg.
Setting [4] is: Week 16, baseline rosuvastatin 10 mg.
Setting [5] is: Week 24, baseline rosuvastatin 10 mg.
[6] abbreviates: Week 4, baseline rosuvastatin 20 mg.
Where [7] appears, read: Week 8, baseline rosuvastatin 20 mg.
Setting [8] is: Week 12, baseline rosuvastatin 20 mg.
Setting [9] is: Week 16, baseline rosuvastatin 20 mg.
Setting [10] is: Week 24, baseline rosuvastatin 20 mg.

Turning to “mAb316P + RSV 10: treatment arm: mAb316P 75/150 mg Q2W + rosuvastatin 10 mg daily”, the “LDL-C W24 % change from baseline, LS mean (SE)” value is given as −50.6%. Further, the “Proportion of Patients Reaching LDL-C goal (%)” value (Baseline Rosuvastatin 10 mg) is 84.9%. Besides, the “Calculated LDL-C LS mean (SE) Value” (Baseline, baseline rosuvastatin 10 mg) was 107.8 (3.8) mg/dL. Also, under setting [1], the “Calculated LDL-C LS mean (SE) Value” is 49.9 (3.6) mg/dL; the “Calculated LDL-C LS mean (SE), % Change from Baseline” value is reported as −53.1 (3.2) %; the “Calculated LDL-C LS mean (SE), Change from Baseline” value is recorded as −55.3 (3.6). Further, under setting [2], the “Calculated LDL-C LS mean (SE) Value” is given as 49.4 (4.3) mg/dL; the “Calculated LDL-C LS mean (SE), % Change from Baseline” value is on record as −53.8 (3.8) %; the “Calculated LDL-C LS mean (SE), Change from Baseline” value is −55.9 (4.3). Also, under setting [3], the “Calculated LDL-C LS mean (SE) Value” is given as 53.9 (4.1) mg/dL; the “Calculated LDL-C LS mean (SE), % Change from Baseline” value is on record as −49.6 (4.1) %; the “Calculated LDL-C LS mean (SE), Change from Baseline” value is −51.3 (4.1). Also, under setting [4], the “Calculated LDL-C LS mean (SE) Value” is given as 49.2 (4.7) mg/dL; the “Calculated LDL-C LS mean (SE), % Change from Baseline” value is −54.1 (4.7) %; the “Calculated LDL-C LS mean (SE), Change from Baseline” value was −56.1 (4.7). Besides, under setting [5], the “Calculated LDL-C LS mean (SE) Value” is on record as 53.0 (4.3) mg/dL; the “Calculated LDL-C LS mean (SE), % Change from Baseline” value is given as −50.6 (4.2) %; the “Calculated LDL-C LS mean (SE), Change from Baseline” value is listed as −52.2 (4.3).

As to “mAb316P + RSV 20: treatment arm: mAb316P 75/150 mg Q2W + rosuvastatin 20 mg daily”, the “LDL-C W24 % change from baseline, LS mean (SE)” value is −36.3%. Besides, the “Proportion of Patients Reaching LDL-C goal (%)” value (Baseline Rosuvastatin 20 mg) was 66.7%. Moreover, the “Calculated LDL-C LS mean (SE) Value” (Baseline, baseline rosuvastatin 20 mg) was 118.1 (4.5) mg/dL. Under setting [6], the “Calculated LDL-C LS mean (SE) Value” is 69.9 (3.4) mg/dL; the “Calculated LDL-C LS mean (SE), % Change from Baseline” value was −39.6 (5.2) %; the “Calculated LDL-C LS mean (SE), Change from Baseline” value is given as −47.1 (3.4). Under setting [7], the “Calculated LDL-C LS mean (SE) Value” is given as 67.4 (4.3) mg/dL; the “Calculated LDL-C LS mean (SE), % Change from Baseline” value is reported as −40.6 (5.7) %; the “Calculated LDL-C LS mean (SE), Change from Baseline” value is recorded as −49.6 (4.3). Further, under setting [8], the “Calculated LDL-C LS mean (SE) Value” is 76.1 (4.2) mg/dL; the “Calculated LDL-C LS mean (SE), % Change from Baseline” value is listed as −32.3 (5.2) %; the “Calculated LDL-C LS mean (SE), Change from Baseline” value is on record as −41.0 (4.2). For the same substance, under setting [9], the “Calculated LDL-C LS mean (SE) Value” is reported as 64.5 (4.8) mg/dL; the “Calculated LDL-C LS mean (SE), % Change from Baseline” value was −44.8 (6.2) %; the “Calculated LDL-C LS mean (SE), Change from Baseline” value is on record as −52.6 (4.8). Under setting [10], the “Calculated LDL-C LS mean (SE) Value” is listed as 73.5 (5.8) mg/dL; the “Calculated LDL-C LS mean (SE), % Change from Baseline” value was −36.3 (7.1) %; the “Calculated LDL-C LS mean (SE), Change from Baseline” value is listed as −43.5 (5.8).
